Laboratory results reported in patent US11376271B1, “Methods of ameliorating the effects of alcoholic liver damage” (FULGENT LIFE INC., priority 2021, dated 2022).

Columns and labels:
AML12 cells [1] = assay: Rescue from hydrogen peroxide (HP) genotoxicity: cell survival and NAD+ level; type: cell-based; conditions: 500 μM HP + 250 μM compound, 3 h, AML12 cells
Procedure: Because the increasing extent of NAD+ concentration is of interest, whether NADH can improve the cell survival rate under the stressful conditions of depletion of NAD+ was also assessed. To that end, as genotoxicity can lead to DNA damage, activate poly(ADP-ribose) polymerases and induce NAD+ depletion, genotoxicity was tested. Strong genotoxicity will lead to severe consumption of NAD+ by cells, resulting in cell death. To test genotoxicity, AML12 cells were treated with 500 μM hydrogen peroxide (HP) for 3 hours in the presence or absence of 1 mM NADH, and then the cells were counted and NAD+ was detected in the samples co-treated with NADH (1 mM) or its vehicle. FIG. 4A is a graph comparing the cell survival rate of the HP treated cells, NADH treated cells, and the HP+NADH treated cells relative to a control. And FIG. 4B is a graph comparing the NAD+ level of the HP treated cells, NADH treated cells, and the HP+NADH treated cells relative to a control. The cell survival rates and cellular NAD+ levels in FIGS. 4A-B are expressed as mean±SD.
The effects of NADH and NMN at a lower concentration (250 μM) on AML12 cells was also tested in a separate assay. Specifically, AML12 cells were treated with 500 μM HP in the presence or absence of 250 μm NADH or NMN for 3 h. FIG. 4C is a graph comparing the cell survival rate of the HP treated cells, HP+NADH treated cells, and the HP+NMN treated cells relative to a control. And FIG. 4D is a graph comparing the NAD+ level of the HP treated cells, HP+NADH treated cells, and the HP+NMN treated cells relative to a control. The cell survival rate and cellular NAD+ levels in FIGS. 4C-D are expressed as mean±SD.

male C57BL/6J mice = assay: Tissue NAD+ content after intraperitoneal injection; type: in vivo; conditions: 250 mg/kg intraperitoneal, 4 hours
Procedure: In the below in vivo assays, C57BL/6J male mice (The Jackson Laboratory) (40 days of age) were used. They were kept under standard laboratory conditions with a temperature of 22±1° C., dark/light cycles of 12/12 h, and relative humidity of 55±5%. All animals had free access to food and water, except for indicated fasting periods (and where not indicated for fasting periods of 2 hours before administration).
[…] Specifically, ten 8-week-old male C57BL/6J mice (The Jackson Laboratory) were kept in polycarbonate cages under a 12-h light/dark cycle with free access to food and water. […] Four hours later, the blood samples were collected by cardiac puncture and the mice were executed. Liver, brain, muscle, and adipose tissues were collected, instantly frozen in liquid nitrogen, and then stored at −80° C. until performance of the NAD+ analyses. […] Four hours later, the mice were killed and tissue samples were collected. All animal studies were performed according to the Guidelines for the Care and Use of Experimental Animals. For this NAD+ assay, about 100 mg of frozen tissue was crushed in liquid nitrogen and ultrasonically homogenized in 7% perchloric acid, and then the solution was neutralized and subjected to the NAD+ determination described here.
Data are indicated as mean±SD.

AML12 cells [2] = assay: NAD+/NADH ratio in AML12 cells; conditions: 1 mM, 6 h, vs control

SMILES: NC(=O)c1ccc[n+]([C@@H]2O[C@H](COP(=O)([O-])O)[C@@H](O)[C@H]2O)c1 [NMN, nicotinamide mononucleotide, reference compound]
- effect on NAD+ levels under HP (AML12 cells [1]): much worse than that of NADH
- effect on cell survival under HP (AML12 cells [1]): much worse than that of NADH
- increase of the concentration of NAD+ in the liver (male C57BL/6J mice): 170%
- NAD+/NADH ratio (AML12 cells [2]): significantly increase
